Experimental data published in patent publication US11707527B2, “Nanoscale drug carrier capable of passing through blood-brain barrier” (KUNSHAN XINYUNDA BIOTECH CO., LTD., priority 2017, dated 2023).

System: glioma model mice
Assay: Therapy of glioma-bearing mice, survival
Conditions: doxorubicin 1 mg/Kg at 9d, 12d and 15d after tumor cell inoculation
Procedure: An animal therapy experiment was conducted by the inventor to glioma-bearing mice (same mice as in Example 4). In the experiment, glioma model mice (same mice as in Example 4) were divided into two groups, 5 mice for each group. And then glioma model mice were treated with doxorubicin (1 mg/Kg) respectively after tumor cell inoculation for 9d, 12d and 15d.

COc1cccc2c1C(=O)c1c(O)c3c(c(O)c1C2=O)C[C@@](O)(C(=O)CO)C[C@@H]3O[C@H]1C[C@H](N)[C@H](O)[C@H](C)O1 [Free-Dox, doxorubicin]
Mean survival time / survival period: 15 days
